We go through 7 molecules from paper PMC12751012, “Nanoscale Direct-to-Biology Optimization and Structural Insights into Selective S. aureus TrmD Inhibitors” (Journal of Medicinal Chemistry, 2025).

Entries after “also recorded” stand apart in the source; their conditions may differ. Where two headings read alike, the source gives them in different places.

In one assay the target is T1, S. aureus TrmD (Staphylococcus aureus, UniProt Q2FZ43).
T1 construct: made in house; host or cells: E. coli BL21
T1 sequence (Q2FZ43 1-245): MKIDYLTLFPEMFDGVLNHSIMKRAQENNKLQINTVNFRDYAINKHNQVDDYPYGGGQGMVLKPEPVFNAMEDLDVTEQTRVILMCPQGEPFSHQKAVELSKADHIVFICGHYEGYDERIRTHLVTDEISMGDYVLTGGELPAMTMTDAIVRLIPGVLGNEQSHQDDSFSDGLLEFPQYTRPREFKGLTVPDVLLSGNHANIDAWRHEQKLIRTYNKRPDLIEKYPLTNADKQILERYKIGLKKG
Description: Fluorescence polarization (FP) assay, tracer 4, S. aureus TrmD. It counts as binding. The method, then: To enable the screening of hundreds of nanomole-scale synthesized compounds, the implementation of a high-throughput-capable RNA methyltransferase (MTase) assay is considered fundamental. […] In this assay format, a fluorescent, SAM-pocket binding tracer can be displaced by the compound under investigation, and the resulting change in fluorescence polarization defines the read-out of the inhibitor compound’s affinity (Figure A).
(§1) Fluorescence polarization (FP) assays were performed as follows. The assays for H. influenzae TrmD have been described previously. All assays were conducted in technical triplicate using black 96-well half area plates. For the FP assays, a tracer (20 nM Cy5TPD for E. coli and H. influenzae TrmD, 10 nM tracer 4 for S. aureus TrmD) was mixed with the respective enzyme (2 μM E. coli TrmD, 2 μM H. influenzae TrmD, 500 nM S. aureus TrmD) in buffer (E. coli and H. influenzae TrmD: 50 mM HEPES, 500 mM NaCl, 5% Glycerol, pH 7.5, S. aureus TrmD: 40 mM Tris HCl, 100 mM NaCl, 10 mM MgCl2, 5% Glycerol, pH 7.5). The compounds were added in varying concentrations for K D-value determination. […] The Z-factor for tracer 4 was determined by measuring 48 replicates of the free tracer (positive controls, PC) and 48 replicates of a mixture of enzyme and tracer (negative controls, NC). The Z-factor is defined in terms of the means (μ) and standard deviations (σ) of the positive and negative controls and calculated as Z = 1–(3*(σnc + σpc)/(μnc–μpc)). […] Polarization values (mP) were determined from polarization-specific parallel and orthogonal fluorescence intensities. K D-values were calculated in GraphPad Prism 8.0.1 using the four-parameter Hill equation: y(% tracer bound) = bottom + ([ligand]-slope) × (top–bottom)/([ligand]-slope + K Dslope).
Background: Fluorescence polarisation rises when a labelled molecule tumbles more slowly, as on binding a larger partner.

The next assay deals with E. coli ATCC10536. Put plainly: Bacterial growth inhibition assay, E. coli ATCC10536. It counts as cell-based, Escherichia coli. Particulars: for effect on E. coli growth: up to 100 μM, growth curves. As for the experimental part: (§2) Compounds were dissolved in DMSO to a final concentration of 20 mM. To determine the compound’s activity against different bacteria, a bacterial culture (E. coli ATCC10536, S. aureus RN4220) was set up to an optical density at 600 nm (OD600) of 0.05 from an overnight culture in Mueller-Hinton broth (Carl Roth). The compound was added in different concentrations ranging from […] to 1 μM. DMSO concentration was constantly adjusted to be 1% in the final culture. Cultures of 200 μL were incubated for 24 h at 37 °C in flat-bottom 96-well polystyrene culture plates (Greiner) using a BioTek Synergy H1 plate reader. Plates were incubated under constant shaking, and absorbance at 600 nm was measured every 20 min. The experiment was performed in three biological replicates with three technical replicates each.

The next assay deals with T2, human Trm5 (Homo sapiens, UniProt Q32P41).
T2 construct: a truncated construct of Trm5 (aa 66–475), with flexible termini omitted; made in house; host or cells: E. coli Rosetta2 (DE3)
T2 sequence (Q32P41 66-475): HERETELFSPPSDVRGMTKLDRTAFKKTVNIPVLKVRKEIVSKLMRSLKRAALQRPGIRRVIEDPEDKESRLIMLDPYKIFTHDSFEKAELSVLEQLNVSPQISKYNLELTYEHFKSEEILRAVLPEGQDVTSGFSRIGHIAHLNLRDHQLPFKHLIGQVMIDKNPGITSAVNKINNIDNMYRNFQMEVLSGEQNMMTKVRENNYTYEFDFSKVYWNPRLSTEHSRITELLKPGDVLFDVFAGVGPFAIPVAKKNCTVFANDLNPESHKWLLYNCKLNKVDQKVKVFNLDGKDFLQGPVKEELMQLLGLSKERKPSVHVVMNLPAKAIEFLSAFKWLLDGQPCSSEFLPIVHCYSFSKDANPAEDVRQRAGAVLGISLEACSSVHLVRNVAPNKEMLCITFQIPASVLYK
Description: 3H-based MTase enzyme inhibition assay, Trm5. The format is biochemical. Conditions: 3H-based enzyme assay, screened at 30 μM. The method, then: ^3H-based inhibition assays for TrmD S. aureus were performed in 50 mM HEPES, 5 mM MgCl2, 80 mM NaCl, 0.005% Tween-20, 1 mM DTT, pH 7.5 buffer; and for Trm5 in 100 mM Tris-HCl, 0.1 mM EDTA, 6 mM MgCl2, 100 mM KCl, 2 mM DTT, pH 7.4. The reaction mixture contained for S. aureus TrmD: 1 μM synthetic tRNA^Leu (Genscript, see above) and 100 nM S. aureus TrmD; For human Trm5:10 μM synthetic tRNA^Leu and 1.5 μM Trm5. Compounds were screened for S. aureus TrmD at 1 μM and for Trm5 at 30 μM. The enzymatic reactions were started by the addition of SAM as a mixture of ^3H-SAM (Hartmann Analytics, S. aureus TrmD: 0.5 μM, Trm5: 2 μM) and cold SAM (New England Biolabs, S. aureus TrmD: 0.5 μM, Trm5: 98 μM) to a final activity of 0.04 μCi μL^–1 (TrmD) or 0.16 μCi μL^–1 (Trm5). The reaction mixtures were incubated in duplicate for 60 min (TrmD)/30 min (Trm5) at 37 °C. As a negative control, the reaction mixture without the enzyme was used, and as a positive control, the reaction mixture without the test compound was used. After the enzyme incubation time, aliquots of 8 μL were taken from the reaction mixture and spotted on Whatman glass microfiber filters (GF/C, 25 mm). The tRNA was precipitated on the filters with 5% ice-cold TCA for 15 min. The filters were washed twice with 5% TCA at room temperature for 20 and 10 min, and once in EtOH for 10 min. After drying, the filters were transferred into scintillation vials with 3 mL of PerkinElmer Gold MV liquid scintillation cocktail. Scintillation was measured with a scintillation counter (TriCarb Liquid Scintillation Analyzer 4810TR; measurement time of 1 min).

For a further assay, the system named is S. aureus RN4220. Description: Bacterial growth inhibition assay, S. aureus RN4220. Conditions: for MIC: Staphylococcus aureus, read-out: MIC S. aureus; for effect on S. aureus RN4220 growth: 1, 10 and 100 μM, 24 h growth curves. The format is cell-based, Staphylococcus aureus. As for the experimental part:
as §2

Another assay deals with T3, H. influenzae TrmD (Haemophilus influenzae, UniProt P43912).
T3 construct: host or cells: E. coli BL21
Put plainly: Fluorescence polarization (FP) assay, tracer 3 (Cy5TPD), H. influenzae TrmD. It counts as binding. The method, then: as §1

The mark [1] stands for this setting: apparent affinity, purified compound, 500 nM TrmD, 10 nM tracer 4, read-out: KD S. aureus TrmD (FP displacement assay).
Setting [2] is: read-out: KD H. influenzae TrmD (FP).

T3 sequence (P43912 whole entry): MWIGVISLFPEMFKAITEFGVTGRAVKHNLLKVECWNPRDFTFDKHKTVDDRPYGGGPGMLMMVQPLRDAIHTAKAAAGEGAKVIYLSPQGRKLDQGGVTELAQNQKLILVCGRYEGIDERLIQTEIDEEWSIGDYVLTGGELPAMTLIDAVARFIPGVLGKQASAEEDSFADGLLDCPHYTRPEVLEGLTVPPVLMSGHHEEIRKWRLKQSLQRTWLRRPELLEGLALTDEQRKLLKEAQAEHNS

With `CC(C)(C)OC(=O)/N=C(\NCCn1cc(-c2c[nH]c3nc[nH]c(=O)c23)nn1)NC(=O)OC(C)(C)C` [Compound 8g], the Kd at S. aureus TrmD (setting [1]) was 19.8 µM. For the same molecule, in the assay with E. coli ATCC10536, the “effect on E. coli growth” value was “no significant growth inhibition”. For the same molecule, at human Trm5, the 50% inhibitory concentration (IC50) is more than 30 µM. The MIC with S. aureus RN4220 (RN4220, 24 h (1440 min)) was more than 100 µM.
Regarding `O=c1[nH]cnc2[nH]cc(-c3cn(CC4CCC5C(CC4)C5(F)F)nn3)c12` (stereo not drawn) [Compound 8c, 5-(1-((8,8-Difluorobicyclo[5.1.0]octan-4-yl)methyl)-1H-1,2,3-triazol-4-yl)-3,7-dihydro-4H-pyrrolo[2,3-d]pyrimidin-4-one], the Kd was 1.05 ± 0.11 µM on S. aureus TrmD (setting [1]) and more than 30 µM at H. influenzae TrmD (setting [2]). Besides, the “effect on E. coli growth” value in the assay on E. coli ATCC10536 was “no pronounced effect on growth”. For the same molecule, on human Trm5, the concentration for half-maximal inhibition (IC50) is more than 30 µM. Also, the “effect on S. aureus RN4220 growth” value with S. aureus RN4220 is “no pronounced effect on growth”. The minimal inhibitory concentration (MIC) in the assay with S. aureus RN4220 (RN4220, 24 h (1440 min)) was more than 100 µM.
In the case of `N#Cc1cccc(Cn2cc(-c3c[nH]c4nc[nH]c(=O)c34)nn2)c1` [Compound 8b, 3-((4-(4-Oxo-4,7-dihydro-3H-pyrrolo[2,3-d]pyrimidin-5-yl)-1H-1,2,3-triazol-1-yl)methyl)benzonitrile], the Kd was 1.82 ± 0.13 µM at S. aureus TrmD (setting [1]) and more than 30 µM on H. influenzae TrmD (setting [2]). The “effect on E. coli growth” value in the assay on E. coli ATCC10536 is on record as “no pronounced effect on growth”. The molecule further displayed a half-inhibitory concentration (IC50) against human Trm5 of more than 30 µM. The “effect on S. aureus RN4220 growth” value in the assay on S. aureus RN4220 was “no pronounced effect on growth”. Moreover, the minimal inhibitory concentration (MIC) in the assay with S. aureus RN4220 (RN4220, 24 h) was more than 100 µM.
As for `O=c1[nH]cnc2[nH]cc(-c3cn(Cc4ccc5ncccc5c4)nn3)c12` [Compound 8d, 5-(1-(Quinolin-6-ylmethyl)-1H-1,2,3-triazol-4-yl)-3,7-dihydro-4H-pyrrolo[2,3-d]pyrimidin-4-one], the Kd is 0.72 ± 0.07 µM at S. aureus TrmD (setting [1]); 0.725 ± 0.075 µM at S. aureus TrmD (chromatographically purified compound, read-out: KD S. aureus TrmD (FP displacement assay)); more than 30 µM on H. influenzae TrmD (setting [2]). Also, in the assay on E. coli ATCC10536, the “effect on E. coli growth” value was “no pronounced effect on growth”. Further, the concentration for half-maximal inhibition (IC50) against human Trm5 was more than 30 µM. Moreover, the “effect on S. aureus RN4220 growth” value in the assay with S. aureus RN4220 is “no pronounced effect on growth”. The minimal inhibitory concentration (MIC) in the assay on S. aureus RN4220 (RN4220, 24 h (1440 min)) is more than 100 µM.
In the case of `O=C(/N=C(\NCCn1cc(-c2c[nH]c3nc[nH]c(=O)c23)nn1)NC(=O)OCc1ccccc1)OCc1ccccc1` [Compound 8f], on S. aureus TrmD (setting [1]), the Kd was more than 100 µM. Moreover, the “S. aureus TrmD binding (FP)” value at S. aureus TrmD (up to 100 μM) is listed as “no S. aureus TrmD binding”. Also, in the assay on E. coli ATCC10536 (highest concentration (100 μM)), the “E. coli growth rate” value is reported as “slight increase”. In addition, the “effect on E. coli growth” value with E. coli ATCC10536 was “no significant growth inhibition”. Moreover, at human Trm5, the IC50 was more than 30 µM. The “effect on S. aureus RN4220 growth” value in the assay on S. aureus RN4220 is “significant reduction in S. aureus growth; also recorded: significant effect on S. aureus bacteria in lower concentrations”. In addition, the minimal inhibitory concentration (MIC) in the assay with S. aureus RN4220 (RN4220, 24 h (1440 min)) was 12.5 µM.
For `N[C@@H]1CCC[C@@H]1Cn1cc(-c2c[nH]c3nc[nH]c(=O)c23)nn1` [Compound 8e, 5-(1-(((1R,2R)-2-Aminocyclopentyl)methyl)-1H-1,2,3-triazol-4-yl)-3,7-dihydro-4H-pyrrolo[2,3-d]pyrimidin-4-one], the Kd at S. aureus TrmD (setting [1]) was 1.62 ± 0.24 µM; on H. influenzae TrmD (setting [2]), more than 30 µM. Further, in the assay on E. coli ATCC10536, the “effect on E. coli growth” value is listed as “no pronounced effect on growth”. On human Trm5, this molecule came in with a concentration for half-maximal inhibition (IC50) of more than 30 µM. Besides, the “effect on S. aureus RN4220 growth” value with S. aureus RN4220 is recorded as “no pronounced effect on growth”. In the assay with S. aureus RN4220 (RN4220, 24 h (1440 min)), the MIC is more than 100 µM.
For the molecule `NC(N)=NCCn1cc(-c2c[nH]c3nc[nH]c(=O)c23)nn1` [Compound 8h], the Kd on S. aureus TrmD (KD S. aureus TrmD (FP displacement assay), apparent affinity, purified compound, 500 nM TrmD, 10 nM tracer 4) is 2.48 ± 0.21 µM; on H. influenzae TrmD (KD H. influenzae TrmD (FP)) it was more than 30 µM. Also, the IC50 against human Trm5 is more than 30 µM.

The IC50 is the concentration that gives 50% inhibition. A higher IC50 goes with a need for much substance. The term MIC denotes the lowest concentration that inhibits growth of the organism.
